Measurements taken from paper PMC6514978, “Synthesis, Antibacterial Activities, Mode of Action and Acute Toxicity Studies of New Oxazolidinone-Fluoroquinolone Hybrids” (Molecules, 2019).
Values after ≈ are worked out from the molar mass of the structure shown.

Columns and labels:
[1] = system: MRSA; assay: MIC against drug-resistant strain; assay type: cell-based; conditions: Staphylococcus aureus, read-out: MIC
In short: (§1)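 CLSI broth microdilution; media: CA-MHB, HTM, or CA-MHB + 3%–5% lysed horse blood by organism. Inoculum 5 × 10^5 CFU/mL, 35 °C, 16–24 h. QC strains (ATCC) run throughout, n = 3.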

[2] = system: CIP-resistant S. aureus; assay: MIC against drug-resistant strain; assay type: cell-based; conditions: Staphylococcus aureus; S. aureus, CIP-resistant; read-out: MIC
In short: as §1

[3] = system: protein synthesis (E. coli extract-based cell-free protein expression system); assay: In vitro transcription/translation assay (S30 T7 cell-free system, Renilla luciferase); assay type: biochemical; conditions: for IC50: E. coli S30 T7 cell-free transcription/translation, 1 h, 37 °C, read-out: IC50 Inhib. of Protein Synthesis
Method: The influence of hybrids OBP-4 and OBP-5 against protein synthesis was confirmed by the S30 T7 High-Yield Protein Expression System (Promega Co., Ltd.). The S30 T7 High-Yield Protein Expression System is an E. coli extract-based cell-free protein expression system, which can effectively transcribe and translate DNA fragments with a T7 promoter. The reaction system containing 1 μg plasmid DNA, 20 μL S30 Premix Plus and 18 μL T7 S30 Extract with or without compounds was incubated for 1 h at 37 °C with a rotational speed of 250 rpm, and terminated by cooling in ice for 5 min in a 96-well white multi-well plate. Then, 1.25 μL of the translation reaction mixture was added to 48.75 μL of Renilla Luciferase Assay Lysis Buffer, and mixed with 50 μL of Renilla Luciferase Assay Reagent (cat no. E2810; Promega). Renilla luciferase activity was measured on EnSpire® Multimode Plate Reader (PerkinElmer, Waltham, MA, USA). […] LZD was used as a positive control.

[4] = system: S. epidermidis (10) clinical isolates; assay: Susceptibility of clinical isolates (MIC); assay type: cell-based, Staphylococcus epidermidis; conditions: for Cumulative % of strains inhibited at MIC / No. of strains inhibited at MIC: S. epidermidis (10); for MIC50 / MIC90 / MIC: Staphylococcus epidermidis, S. epidermidis, 10 clinical isolates; for MIC50: read-out: MIC50; for MIC90: read-out: MIC90; for MIC: read-out: MIC Range
Method: (§2) Susceptibility testing of oxazolidinone-fluoroquinolone hybrids against various bacteria was performed by the broth microdilution method as outlined by the Clinical and Laboratory Standards Institute (CLSI). Three types of media, including cation-adjusted Mueller Hinton broth, Haemophilus Test Medium and cation-adjusted Mueller Hinton broth that contained 3%–5% lysed horse blood, were used to culture the corresponding bacteria. […] A final inoculum of 5 × 10^5 CFU/mL was used and plates were read after incubation for 16–24 h at 35 °C. […] Standard quality control strains (ATCC) were included throughout. Each determination was repeated in triplicate.

[5] = system: Gram-positive bacteria; assay: MIC summary, Gram-positive bacteria of the preliminary panel; assay type: cell-based
Text: 6 standard strains and 3 clinical isolates were used to the preliminary evaluation of in vitro antibacterial activities of oxazolidinone-fluoroquinolone hybrids. For the further evaluation of hybrids OBP-4 and OBP-5, 263 clinical isolates including S. aureus (46), S. haemolyticus(32), S. epidermidis (10), E. faecalis (72), E. faecium (47), S. pneumoniae (13), H. parasuis (34), S. suis (9), and 8 resistant strains including MRSA, MRSE, CIP-resistant S. aureus and S. haemolyticus, VAN and quinolone-resistant S. pneumoniae, LZD-resistant E. faecalis, LZD/VAN and quinolone-resistant E. faecium were collected and tested.
Susceptibility testing of oxazolidinone-fluoroquinolone hybrids against various bacteria was performed by the broth microdilution method as outlined by the Clinical and Laboratory Standards Institute (CLSI). Three types of media, including cation-adjusted Mueller Hinton broth, Haemophilus Test Medium and cation-adjusted Mueller Hinton broth that contained 3%–5% lysed horse blood, were used to culture the corresponding bacteria. All compounds including comparator drugs were dissolved in an appropriate solvent at a concentration of 2.048 mg/mL and then serially diluted two-fold to provide the required concentrations. A final inoculum of 5 × 10^5 CFU/mL was used and plates were read after incubation for 16–24 h at 35 °C. […]

[6] = system: H. parasuis (34) clinical isolates; assay: Susceptibility of clinical isolates (MIC); assay type: cell-based, Haemophilus parasuis; conditions: for MIC50 / MIC90: Glaesserella parasuis; for MIC50 / MIC90 / MIC Range: H. parasuis, 34 clinical isolates; for MIC50: read-out: MIC50; for MIC90: read-out: MIC90; for Cumulative % of strains inhibited at MIC / No. of strains inhibited at MIC: H. parasuis (34)
Method: as §2

[7] = system: S. suis (9) clinical isolates; assay: Susceptibility of clinical isolates (MIC); assay type: cell-based, Streptococcus suis; conditions: for Cumulative % of strains inhibited at MIC / No. of strains inhibited at MIC: S. suis (9); for MIC50 / MIC90 / MIC: Streptococcus suis, S. suis, 9 clinical isolates; for MIC50: read-out: MIC50; for MIC90: read-out: MIC90; for MIC: read-out: MIC Range
Method: as §2

[8] = Acute oral toxicity, limit test (OECD 425); assay type: in vivo; conditions: female, Kunming, mouse, in vivo, 2000 mg/kg·bw; mice, single oral dose, limit test 2000 mg/kg, 14 d observation
Method: (§3) Female Kunming mice (SPF grade, 18–22 g) were obtained from laboratory animal center of Lanzhou Veterinary Research Institute (Lanzhou, China). Mice were maintained under the standard conditions of 12 h light/dark cycle, room temperate (22 ± 3 °C), 50–60% relative humidity. They were fed normally with an unlimited supply of feed and water for seven days and deprived of food but not water for 4 h prior to the experiment. The toxicity test was supported by the Animal Ethics Committee of Lanzhou Institute of Husbandry and Pharmaceutical Sciences.
(§4) The acute toxicity of hybrids OBP-4 and OBP-5 was conducted by the limit test described in the OECD guideline 425 [39]. The mice were divided randomly into two groups, five animals in each group. One group of mice received a single oral dose of hybrids OBP-4 or OBP-5 at 2000 mg/kg·bw, and the other group of mice was given the equal volume of 0.5% CMC-Na solution (0.1 mL/10 g of body weight). Food was restored until 4 h after administration. The observation of each animal occurred according to the OECD guideline 425 [27], meaning continuously during the first 30 min, periodically during the next 24 h, and then daily thereafter until 14 d after dosing. The weight changes and mortality were calculated and recorded. The mice that survived were humanely killed at the end of the experiment.

[9] = system: Female Kunming mice; assay: Acute oral toxicity, limit test (OECD 425); assay type: in vivo; conditions: single oral dose 2000 mg/kg, 14 d observation
Method: as §3, §4

C[C@H]1CCc2c(N3CCC(O)(COc4ccc(N5C[C@H](CO)OC5=O)cc4F)CC3)c(F)cc3c(=O)c(C(=O)O)cn1c23 [OBP-4]
MIC [1]: 0.25 µg/mL (≈ 0.417 µM) | MIC [2]: 0.125 µg/mL (≈ 0.208 µM) | IC50 [3]: 5 µM | Cumulative % of strains inhibited at MIC ([4]; MIC 0.125 µg/mL): 60.0% | No. of strains inhibited at MIC ([4]; MIC 0.125 µg/mL): 4 | Cumulative % of strains inhibited at MIC ([4]; MIC […]): 100.0% | No. of strains inhibited at MIC ([4]; MIC […]): 4 | Cumulative % of strains inhibited at MIC ([4]; MIC ≤[…]): 20.0% | No. of strains inhibited at MIC ([4]; MIC ≤[…]): 2 | MIC50 [4]: 0.125 µg/mL (≈ 0.208 µM) | MIC90 [4]: 0.25 µg/mL (≈ 0.417 µM) | MIC [4]: 0.0625 to 0.25 µg/mL (≈ 0.104 to 0.417 µM) | MIC ([5]; read-out: MICs against Gram-positive bacteria): ≤ 0.5 µg/mL | MIC50 [6]: 1 µg/mL (≈ 1.67 µM) | MIC90 [6]: 4 µg/mL (≈ 6.67 µM) | Cumulative % of strains inhibited at MIC ([6]; MIC 0.5 µg/mL): 35.3% | No. of strains inhibited at MIC ([6]; MIC 0.5 µg/mL): 5 | Cumulative % of strains inhibited at MIC ([6]; MIC 1 µg/mL): 61.8% | No. of strains inhibited at MIC ([6]; MIC 1 µg/mL): 9 | Cumulative % of strains inhibited at MIC ([6]; MIC 2 µg/mL): 79.4% | No. of strains inhibited at MIC ([6]; MIC 2 µg/mL): 6 | Cumulative % of strains inhibited at MIC ([6]; MIC 4 µg/mL): 100.0% | No. of strains inhibited at MIC ([6]; MIC 4 µg/mL): 7 | Cumulative % of strains inhibited at MIC ([6]; MIC […]): 20.6% | No. of strains inhibited at MIC ([6]; MIC […]): 3 | Cumulative % of strains inhibited at MIC ([6]; MIC ≤[…]): 11.8% | No. of strains inhibited at MIC ([6]; MIC ≤[…]): 4 | MIC Range [6]: ≤0.0625 to 4 µg/mL | Cumulative % of strains inhibited at MIC ([7]; MIC 0.125 µg/mL): 77.8% | No. of strains inhibited at MIC ([7]; MIC 0.125 µg/mL): 2 | Cumulative % of strains inhibited at MIC ([7]; MIC 2 µg/mL): 100% | No. of strains inhibited at MIC ([7]; MIC 2 µg/mL): 1 | Cumulative % of strains inhibited at MIC ([7]; MIC […]): 88.9% | No. of strains inhibited at MIC ([7]; MIC […]): 1 | Cumulative % of strains inhibited at MIC ([7]; MIC ≤[…]): 55.6% | No. of strains inhibited at MIC ([7]; MIC ≤[…]): 5 | MIC50 [7]: ≤ 0.0625 µg/mL | MIC90 [7]: 0.25 µg/mL (≈ 0.417 µM) | MIC [7]: 0.0625 to 2 µg/mL (≈ 0.104 to 3.34 µM) | LD50 at 14 d [8]: > 2000 mg/kg | death and toxicity signs [9]: No death and any toxicity signs were observed

CC1Sc2c(C(=O)O)c(=O)c3cc(F)c(N4CCC(O)(COc5ccc(N6C[C@H](CO)OC6=O)cc5F)CC4)cc3n21 (some centres unmarked) [OBP-5]
MIC [1]: 0.125 µg/mL (≈ 0.207 µM) | MIC [2]: ≤ 0.0625 µg/mL | IC50 [3]: 2 µM | protein synthesis inhibition, fold greater than LZD ([3]; relative to IC50 of LZD): 2.5 fold | No. of strains inhibited at MIC ([4]; MIC 0.125 µg/mL): 2 | Cumulative % of strains inhibited at MIC ([4]; MIC ≤[…]): 80.0% | No. of strains inhibited at MIC ([4]; MIC ≤[…]): 8 | MIC50 [4]: ≤ 0.0625 µg/mL | MIC90 [4]: 0.125 µg/mL (≈ 0.207 µM) | MIC [4]: 0.0625 to 0.125 µg/mL (≈ 0.104 to 0.207 µM) | antibacterial efficacy against Gram-positive bacteria, times stronger than LZD ([5]; relative to LZD): 4–16 times | MIC50 [6]: 0.5 µg/mL (≈ 0.828 µM) | MIC90 [6]: 2 µg/mL (≈ 3.31 µM) | Cumulative % of strains inhibited at MIC ([6]; MIC 0.125 µg/mL): 17.6% | No. of strains inhibited at MIC ([6]; MIC 0.125 µg/mL): 1 | Cumulative % of strains inhibited at MIC ([6]; MIC 0.5 µg/mL): 47.1% | No. of strains inhibited at MIC ([6]; MIC 0.5 µg/mL): 6 | Cumulative % of strains inhibited at MIC ([6]; MIC 1 µg/mL): 67.6% | No. of strains inhibited at MIC ([6]; MIC 1 µg/mL): 7 | Cumulative % of strains inhibited at MIC ([6]; MIC 2 µg/mL): 97.1% | No. of strains inhibited at MIC ([6]; MIC 2 µg/mL): 10 | Cumulative % of strains inhibited at MIC ([6]; MIC 4 µg/mL): 100.0% | No. of strains inhibited at MIC ([6]; MIC 4 µg/mL): 1 | Cumulative % of strains inhibited at MIC ([6]; MIC […]): 29.4% | No. of strains inhibited at MIC ([6]; MIC […]): 4 | Cumulative % of strains inhibited at MIC ([6]; MIC ≤[…]): 14.7% | No. of strains inhibited at MIC ([6]; MIC ≤[…]): 5 | MIC Range [6]: ≤0.0625 to 4 µg/mL | Cumulative % of strains inhibited at MIC ([7]; MIC 0.125 µg/mL): 88.9% | No. of strains inhibited at MIC ([7]; MIC 0.125 µg/mL): 3 | Cumulative % of strains inhibited at MIC ([7]; MIC 2 µg/mL): 100% | No. of strains inhibited at MIC ([7]; MIC 2 µg/mL): 1 | Cumulative % of strains inhibited at MIC ([7]; MIC ≤[…]): 55.6% | No. of strains inhibited at MIC ([7]; MIC ≤[…]): 5 | MIC50 [7]: ≤ 0.0625 µg/mL | MIC90 [7]: 0.125 µg/mL (≈ 0.207 µM) | MIC [7]: 0.0625 to 2 µg/mL (≈ 0.104 to 3.31 µM) | LD50 at 14 d [8]: > 2000 mg/kg | death and toxicity signs [9]: No death and any toxicity signs were observed

CC(=O)NC[C@H]1CN(c2ccc(N3CCOCC3)c(F)c2)C(=O)O1 [LZD, linezolid, reference compound]
MIC [1]: 4 µg/mL (≈ 11.9 µM) | MIC [2]: 2 µg/mL (≈ 5.93 µM) | IC50 [3]: 5 µM | CLSI %S (susceptible) ([4]; S. epidermidis clinical isolates, CLSI criteria): 100.0/- % | MIC50 [4]: 1 µg/mL (≈ 2.96 µM) | MIC90 [4]: 1 µg/mL (≈ 2.96 µM) | MIC [4]: 0.5 to 1 µg/mL (≈ 1.48 to 2.96 µM) | MIC50 [6]: 16 µg/mL (≈ 47.4 µM) | MIC90 [6]: > 32 µg/mL | MIC50 [7]: 0.5 µg/mL (≈ 1.48 µM) | MIC90 [7]: 4 µg/mL (≈ 11.9 µM) | MIC [7]: 0.5 to 4 µg/mL (≈ 1.48 to 11.9 µM)
